Data set [1] deals with T-cells (peripheral blood mononuclear cells). Description: T-cell proliferation assay (PHA-stimulated PBMC, tritiated thymidine incorporation). Type of data set: cell-based, human. The note with it: in vitro; for IC50: PHA-stimulated human PBMC, 72 h + 18 h thymidine pulse, read-out: IC50, T-cell proliferation inhibition; for T-cell proliferation inhibitory activity, result in words: compared to substrate (1) and standard prednisolone. The protocol:
T-Cell Proliferation Assay The T-cell proliferation inhibitory activity of compounds 2-6 were evaluated by following the method of Nielsen et al. (1998). Peripheral blood mononuclear cells (PBMC) were isolated by Ficoll-Hypaque gradient centrifugation from the blood of healthy human volunteers. The concentration of the cell was adjusted to 2×10^6 cells/mL in RPMI-1640 media containing 5% FBS (Fetal bovine serum) and then 5 μg/mL phytohemagglutinin (PHA) was added into each well of a sterile 96-well plates. Different concentrations of test compounds (0.2, 1, 5, and 25 μg/mL) were then added, each in triplicate. Positive control wells contained cells and PHA, whereas the negative control contains cells alone. The plate was incubated in 5% CO2 at 37° C. for 72 hours and the cells were pulsed with 25 μL of tritiatedthymidine (0.5 μci/well), and the incubation was continued for 18 hours. Cells were harvested on a glass fiber filter, and the effect of the test compounds on proliferation was evaluated using a LS65000 liquid scintillation counter (Beckman Coulter, Fullerton, Calif., USA) quantitatively using a LS65000 liquid scintillation counter (Beckman Coulter, CA, USA). Counts per minute (CPM) were recorded, and the inhibiton of T-cell proliferation was calculated in comparison to control containing cells and PHA.
Background: Dividing cells build labelled thymidine or BrdU into new DNA.

The structures appear in SMILES notation. Like-named read-outs stand apart in the source and are kept apart here.

As for `CC(=O)O[C@]1(C(C)=O)C[C@@H](O)[C@H]2[C@@H]3C[C@H](C)C4=CC(=O)CC[C@]4(C)[C@H]3[C@@H](O)C[C@@]21C` [Compound 5, 17α-Acetoxy-11β,15β-dihydroxy-6α-methylpregn-4-ene-3,20-dione], the melting point (in general, the temperature, or range, at which the solid turns liquid) was in the range of 228 to 230 °C. Also, the IC50 in data set [1] (90 h) is under 0.5 µM. Further, in data set [1], the IC50 was under 0.5 µM and the “T-cell proliferation inhibitory activity, result in words” value is given as “potent inhibitors”.
Turning to `CC(=O)O[C@]1(C(C)=O)CC[C@H]2[C@@H]3C[C@H](C)C4=CC(=O)CC[C@]4(C)[C@H]3CC[C@@]21C` [Compound 1, Medroxyprogesterone acetate], the IC50 in data set [1] was 6.48 ± 5.18 µM.
For the compound `C[C@]12C=CC(=O)C=C1CC[C@@H]1[C@@H]2[C@@H](O)C[C@@]2(C)[C@H]1CC[C@]2(O)C(=O)CO` [prednisolone, reference compound], the IC50 in data set [1] (90 h) and in data set [1] was 9.75 ± 0.03 µM throughout.
`CC(=O)O[C@]1(C(C)=O)CC[C@H]2[C@@H]3C[C@H](C)C4=CC(=O)CC[C@]4(C)[C@H]3C(=O)C[C@@]21C` [Compound 2, 17α-Acetoxy-6α-methylpregn-4-ene-3,11,20-trione] came in with a melting point of 238 to 240 °C. The IC50 in data set [1] (90 h) was under 0.5 µM. For the same compound, in data set [1], the IC50 was under 0.5 µM and the “T-cell proliferation inhibitory activity, result in words” value is on record as “potent inhibitors”.
Regarding `CC(=O)O[C@]1(C(C)=O)C[C@@H](O)[C@H]2[C@@H]3C[C@H](C)C4=CC(=O)CC[C@]4(C)[C@H]3C(=O)C[C@@]21C` [Compound 3, 17α-Acetoxy-15β-hydroxy-6α-methylpregn-4-ene-3,11,20-trione], the melting point fell in the range of 265 to 268 °C. In data set [1] (90 h), the IC50 was determined as 41.6 ± 8.14 µM. Further, the “T-cell proliferation inhibitory activity, result in words” value in data set [1] is on record as “moderately active”.
`CC(=O)O[C@]1(C(C)=O)CC[C@H]2[C@@H]3C[C@@](C)(O)C4=CC(=O)CC[C@]4(C)[C@H]3[C@@H](O)C[C@@]21C` [Compound 6, 17α-Acetoxy-11β,6β-dihydroxy-6α-methylpregn-4-ene-3,20-dione] registered a melting point of 152 to 154 °C. Further, the IC50 in data set [1] (90 h) came out at 8.64 ± 0.02 µM. For the same compound, in data set [1], the IC50 is 8.64 ± 0.02 µM and the “T-cell proliferation inhibitory activity, result in words” value is given as “strong activity”.
`CC(=O)O[C@]1(C(C)=O)CC[C@H]2[C@@H]3C[C@@](C)(O)C4=CC(=O)CC[C@]4(C)[C@H]3C(=O)C[C@@]21C` [Compound 4, 17α-Acetoxy-6β-hydroxy-6α-methylpregn-4-ene-3,11,20-trione] gave a melting point of 232 to 233 °C. Further, the IC50 in data set [1] (90 h) came to 40.14 ± 0.12 µM. Moreover, the “T-cell proliferation inhibitory activity, result in words” value in data set [1] was “moderately active”.

The values are drawn from patent US20220145335A1, “Bio-catalyzed Synthesis of Potent Anti-inflammatory Agents from Medroxyprogesterone Acetate” (priority 2022, published 2022).
